Reference: ChEMBL document CHEMBL5260810, “Inhibition of bromodomain-containing protein 9 for the prevention of epigenetically-defined drug resistance” (Bioorg Med Chem Lett, 2017)

Legend:
EL4 = test: Cytotoxicity against mouse EL4 cells measured after 8 days; type: functional, cell-based; settings: EL4, 192 h
JIYOYE = test: Cytotoxicity against human JIYOYE cells measured after 8 days; type: functional, cell-based; settings: 192 h
L-363 = test: Cytotoxicity against human L-363 cells measured after 8 days; type: functional, cell-based; settings: L-363, 192 h
[1] = Cytotoxicity against human KMS-26 cells measured after 8 days; type: functional, cell-based; settings: KMS-26, 192 h
KMS-12-BM = test: Cytotoxicity against human KMS-12-BM cells measured after 8 days; type: functional, cell-based; settings: 192 h
RPMI-8226 = test: Cytotoxicity against human RPMI-8226 cells measured after 8 days; type: functional, cell-based; settings: RPMI-8226, 192 h
[2] = Cytotoxicity against human RERF-LC-KJ cells measured after 8 days; type: functional, cell-based; settings: 192 h
[3] = Cytotoxicity against human NCE-G 112 cells measured after 8 days; type: functional, cell-based; settings: NCE-G 112, 192 h
[4] = Cytotoxicity against human NCE-G 96 cells measured after 8 days; type: functional, cell-based; settings: NCE-G 96, 192 h
A20 = test: Cytotoxicity against mouse A20 cells measured after 8 days; type: functional, cell-based; settings: A20, 192 h
NB69 = test: Cytotoxicity against human NB69 cells measured after 8 days; type: functional, cell-based; settings: NB69, 192 h
SK-N-AS = test: Cytotoxicity against human SK-N-AS cells measured after 8 days; type: functional, cell-based; settings: 192 h
SK-N-FI = test: Cytotoxicity against human SK-N-FI cells measured after 8 days; type: functional, cell-based; settings: 192 h
SK-N-SH = test: Cytotoxicity against human SK-N-SH cells measured after 8 days; type: functional, cell-based; settings: 192 h
[5] = Cytotoxicity against human BICR 10 cells measured after 8 days; type: functional, cell-based; settings: BICR 10, 192 h
HN = test: Cytotoxicity against human HN cells measured after 8 days; type: functional, cell-based; settings: 192 h
A2780 = test: Cytotoxicity against human A2780 cells measured after 8 days; type: functional, cell-based; settings: A2780, 192 h
EMT6 = test: Cytotoxicity against mouse EMT6 Luciferase cells measured after 8 days; type: functional, cell-based; settings: EMT6, 192 h
[6] = Cytotoxicity against human OV56 cells measured after 8 days; type: functional, cell-based; settings: OV56, 192 h
MCF-10A = test: Cytotoxicity against human MCF-10A AKT2-/- cells measured after 8 days; type: functional, cell-based; settings: 192 h
[7] = Cytotoxicity against human MT-3 cells measured after 8 days; type: functional, cell-based; settings: MT-3, 192 h
[8] = Cytotoxicity against human OVSAHO cells measured after 8 days; type: functional, cell-based; settings: 192 h
[9] = Cytotoxicity against human VP229 cells measured after 8 days; type: functional, cell-based; settings: VP229, 192 h
HeLa = test: Cytotoxicity against human HeLa cells measured after 8 days; type: functional, cell-based; settings: 192 h
[10] = Cytotoxicity against human SKG-IIIb cells measured after 8 days; type: functional, cell-based; settings: 192 h
HuP-T4 = test: Cytotoxicity against human HuP-T4 cells measured after 8 days; type: functional, cell-based; settings: HuP-T4, 192 h
[11] = Cytotoxicity against human KCI-MOH1 cells measured after 8 days; type: functional, cell-based; settings: KCI-MOH1, 192 h
[12] = Cytotoxicity against human KPR3351 cells measured after 8 days; type: functional, cell-based; settings: KPR3351, 192 h
MIA PaCa-2 = test: Cytotoxicity against human MIA Paca-2 cells measured after 8 days; type: functional, cell-based; settings: MIA PaCa-2, 192 h
[13] = Cytotoxicity against human Panc 04.03 cells measured after 8 days; type: functional, cell-based; settings: Panc 04.03, 192 h
C2BBe1 = test: Cytotoxicity against human C2BBe1 cells measured after 8 days; type: functional, cell-based; settings: C2BBe1, 192 h
[14] = Cytotoxicity against human CoCM-1 cells measured after 8 days; type: functional, cell-based; settings: CoCM-1, 192 h
[15] = Cytotoxicity against human HCC1263 cells measured after 8 days; type: functional, cell-based; settings: HCC1263, 192 h
[16] = Cytotoxicity against human QGP-1 cells measured after 8 days; type: functional, cell-based; settings: QGP-1, 192 h
RCM-1 = test: Cytotoxicity against human RCM-1 cells measured after 8 days; type: functional, cell-based; settings: RCM-1, 192 h
SW1463 = test: Cytotoxicity against human SW1463 cells measured after 8 days; type: functional, cell-based; settings: SW1463, 192 h
A2058 = test: Cytotoxicity against human A2058 cells measured after 8 days; type: functional, cell-based; settings: A2058, 192 h
B16-F10 [17] = test: Cytotoxicity against mouse B16-F10 cells measured after 8 days; type: functional, cell-based; settings: B16-F10, 192 h
B16-F10 [18] = test: Cytotoxicity against mouse B16-F10 Luciferase cells measured after 8 days; type: functional, cell-based; settings: B16-F10, 192 h
T84 = test: Cytotoxicity against human T84 cells measured after 8 days; type: functional, cell-based; settings: T84, 192 h
KYSE-410 = test: Cytotoxicity against human KYSE-410 cells measured after 8 days; type: functional, cell-based; settings: KYSE-410, 192 h
KYSE-510 = test: Cytotoxicity against human KYSE-510 cells measured after 8 days; type: functional, cell-based; settings: KYSE-510, 192 h
G-361 = test: Cytotoxicity against human G-361 cells measured after 8 days; type: functional, cell-based; settings: G-361, 192 h
[19] = Cytotoxicity against human GR-M cells measured after 8 days; type: functional, cell-based; settings: 192 h
IGR-1 = test: Cytotoxicity against human IGR-1 cells measured after 8 days; type: functional, cell-based; settings: IGR-1, 192 h
[20] = Cytotoxicity against human T.T cells measured after 8 days; type: functional, cell-based; settings: TT, 192 h
[21] = Cytotoxicity against human KMRC-20 cells measured after 8 days; type: functional, cell-based; settings: KMRC-20, 192 h
LOX IMVI = test: Cytotoxicity against human LOX IMVI cells measured after 8 days; type: functional, cell-based; settings: 192 h
Malme-3M = test: Cytotoxicity against human Malme-3M cells measured after 8 days; type: functional, cell-based; settings: 192 h
RPMI-7951 = test: Cytotoxicity against human RPMI-7951 cells measured after 8 days; type: functional, cell-based; settings: RPMI-7951, 192 h
SK-MEL-1 = test: Cytotoxicity against human SK-MEL-1 cells measured after 8 days; type: functional, cell-based; settings: SK-MEL-1, 192 h
SK-MEL3 = test: Cytotoxicity against human SK-MEL3 cells measured after 8 days; type: functional, cell-based; settings: SK-MEL3, 192 h
WM 266-4 = test: Cytotoxicity against human WM266-4 cells measured after 8 days; type: functional, cell-based; settings: WM 266-4, 192 h
HuCCT-1 = test: Cytotoxicity against human HuCCT-1 cells measured after 8 days; type: functional, cell-based; settings: HuCCT-1, 192 h
[22] = Cytotoxicity against human HuH-1 cells measured after 8 days; type: functional, cell-based; settings: HuH-1, 192 h
[23] = Cytotoxicity against human SNU-216 cells measured after 8 days; type: functional, cell-based; settings: SNU-216, 192 h
[24] = Cytotoxicity against mouse AB22 cells measured after 8 days; type: functional, cell-based; settings: AB22, 192 h
[25] = Cytotoxicity against human ASH-3 cells measured after 8 days; type: functional, cell-based; settings: ASH-3, 192 h
[26] = Cytotoxicity against human HEC-108 cells measured after 8 days; type: functional, cell-based; settings: HEC-108, 192 h
[27] = Cytotoxicity against human HEC-265 cells measured after 8 days; type: functional, cell-based; settings: HEC-265, 192 h
[28] = Cytotoxicity against human HEC-50B cells measured after 8 days; type: functional, cell-based; settings: 192 h
RL95-2 = test: Cytotoxicity against human RL95-2 cells measured after 8 days; type: functional, cell-based; settings: RL95-2, 192 h
Homo sapiens = organism: Homo sapiens; test: Inhibition of human N muscle type receptor at 10 uM relative to control

C/C=C/Cn1cc(-c2ccc(C(C)(C)O)cc2OC)c2cc[nH]c2c1=O
IC50 (EL4): 20 µM
IC50 (JIYOYE): 13.5 µM
IC50 (L-363): 20 µM
IC50 [1]: 2610 nM
IC50 (KMS-12-BM): 20 µM
IC50 (RPMI-8226): 20 µM
IC50 [2]: 20 µM
IC50 [3]: 20 µM
IC50 [4]: 20 µM
IC50 (A20): 3.43 µM
IC50 (NB69): 20 µM
IC50 (SK-N-AS): 20 µM
IC50 (SK-N-FI): 20 µM
IC50 (SK-N-SH): 20 µM
IC50 [5]: 20 µM
IC50 (HN): 20 µM
IC50 (A2780): 20 µM
IC50 (EMT6): 20 µM
IC50 [6]: 20 µM
IC50 (MCF-10A): 14.2 µM
IC50 [7]: 20 µM
IC50 [8]: 20 µM
IC50 [9]: 20 µM
IC50 (HeLa): 20 µM
IC50 [10]: 20 µM
IC50 (HuP-T4): 20 µM
IC50 [11]: 20 µM
IC50 [12]: 20 µM
IC50 (MIA PaCa-2): 20 µM
IC50 [13]: 20 µM
IC50 (C2BBe1): 20 µM
IC50 [14]: 20 µM
IC50 [15]: 20 µM
IC50 [16]: 20 µM
IC50 (RCM-1): 20 µM
IC50 (SW1463): 20 µM
IC50 (A2058): 20 µM
IC50 (B16-F10 [17]): 20 µM
IC50 (B16-F10 [18]): 20 µM
IC50 (T84): 20 µM
IC50 (KYSE-410): 20 µM
IC50 (KYSE-510): 20 µM
IC50 (G-361): 20 µM
IC50 [19]: 20 µM
IC50 (IGR-1): 20 µM
IC50 [20]: 20 µM
IC50 [21]: 20 µM
IC50 (LOX IMVI): 20 µM
IC50 (Malme-3M): 20 µM
IC50 (RPMI-7951): 20 µM
IC50 (SK-MEL-1): 20 µM
IC50 (SK-MEL3): 20 µM
IC50 (WM 266-4): 20 µM
IC50 (HuCCT-1): 20 µM
IC50 [22]: 20 µM
IC50 [23]: 20 µM
IC50 [24]: 20 µM
IC50 [25]: 20 µM
IC50 [26]: 20 µM
IC50 [27]: 20 µM
IC50 [28]: 20 µM
IC50 (RL95-2): 20 µM
inhibition (Homo sapiens): -7%

C/C=C/Cn1cc(-c2ccc(C(=O)N3CCOCC3)cc2)c2cc[nH]c2c1=O
IC50 (EL4): 20 µM
IC50 (JIYOYE): 2.85 µM
IC50 (L-363): 10.4 µM
IC50 [1]: 2110 nM
IC50 (KMS-12-BM): 13.7 µM
IC50 (RPMI-8226): 20 µM
IC50 [2]: 20 µM
IC50 [3]: 20 µM
IC50 [4]: 20 µM
IC50 (A20): 7 µM
IC50 (NB69): 20 µM
IC50 (SK-N-AS): 20 µM
IC50 (SK-N-FI): 20 µM
IC50 (SK-N-SH): 20 µM
IC50 [5]: 20 µM
IC50 (HN): 20 µM
IC50 (A2780): 20 µM
IC50 (EMT6): 20 µM
IC50 [6]: 20 µM
IC50 (MCF-10A): 14.2 µM
IC50 [7]: 20 µM
IC50 [8]: 20 µM
IC50 [9]: 20 µM
IC50 (HeLa): 20 µM
IC50 [10]: 20 µM
IC50 (HuP-T4): 20 µM
IC50 [11]: 20 µM
IC50 [12]: 20 µM
IC50 (MIA PaCa-2): 20 µM
IC50 [13]: 20 µM
IC50 (C2BBe1): 20 µM
IC50 [14]: 20 µM
IC50 [15]: 20 µM
IC50 [16]: 20 µM
IC50 (RCM-1): 20 µM
IC50 (SW1463): 20 µM
IC50 (A2058): 20 µM
IC50 (B16-F10 [17]): 20 µM
IC50 (B16-F10 [18]): 20 µM
IC50 (T84): 20 µM
IC50 (KYSE-410): 20 µM
IC50 (KYSE-510): 20 µM
IC50 (G-361): 20 µM
IC50 [19]: 20 µM
IC50 (IGR-1): 20 µM
IC50 [20]: 20 µM
IC50 [21]: 20 µM
IC50 (LOX IMVI): 20 µM
IC50 (Malme-3M): 20 µM
IC50 (RPMI-7951): 20 µM
IC50 (SK-MEL-1): 20 µM
IC50 (SK-MEL3): 20 µM
IC50 (WM 266-4): 20 µM
IC50 (HuCCT-1): 20 µM
IC50 [22]: 20 µM
IC50 [23]: 20 µM
IC50 [24]: 20 µM
IC50 [25]: 20 µM
IC50 [26]: 20 µM
IC50 [27]: 20 µM
IC50 [28]: 20 µM
IC50 (RL95-2): 20 µM
inhibition (Homo sapiens): -1%
